Here are results for 3 compounds from US8071768B2, “Alkylquinoline and alkylquinazoline kinase modulators” (Janssen Pharmaceutica, N.V., priority 2005, dated 2011).

One test has as its target T1, TrkB (Homo sapiens, UniProt Q16620).
T1 construct: purchased Upstate 14-507M
The test can be described thus: Trk B Fluorescence Polarization Kinase Assay. In kind it is biochemical. The note with it: uncertainty ±10%. The gist of the method: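 The TrkB kinase reaction (50 nM enzyme, 20 ug/mL poly Glu4Tyr, 150 uM ATP, 5 mM MgCl2, 1% DMSO) ran 30 minutes at room temperature and was stopped with EDTA. Phosphorylation was detected by fluorescence-polarization displacement of a fluorescein phosphopeptide from an anti-phosphotyrosine antibody. IC50 came from a variable-slope sigmoidal fit of triplicates.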
Background: Polarisation of emitted light reports the rotation of a fluorescent probe.

The target of test [1] is T2, FLT ligand-induced wild-type FLT3 phosphorylation (Homo sapiens, UniProt P36888).
T2 construct: host or cells: Baf3 (murine B cell lymphoma line)
T2 sequence (P36888 27-993): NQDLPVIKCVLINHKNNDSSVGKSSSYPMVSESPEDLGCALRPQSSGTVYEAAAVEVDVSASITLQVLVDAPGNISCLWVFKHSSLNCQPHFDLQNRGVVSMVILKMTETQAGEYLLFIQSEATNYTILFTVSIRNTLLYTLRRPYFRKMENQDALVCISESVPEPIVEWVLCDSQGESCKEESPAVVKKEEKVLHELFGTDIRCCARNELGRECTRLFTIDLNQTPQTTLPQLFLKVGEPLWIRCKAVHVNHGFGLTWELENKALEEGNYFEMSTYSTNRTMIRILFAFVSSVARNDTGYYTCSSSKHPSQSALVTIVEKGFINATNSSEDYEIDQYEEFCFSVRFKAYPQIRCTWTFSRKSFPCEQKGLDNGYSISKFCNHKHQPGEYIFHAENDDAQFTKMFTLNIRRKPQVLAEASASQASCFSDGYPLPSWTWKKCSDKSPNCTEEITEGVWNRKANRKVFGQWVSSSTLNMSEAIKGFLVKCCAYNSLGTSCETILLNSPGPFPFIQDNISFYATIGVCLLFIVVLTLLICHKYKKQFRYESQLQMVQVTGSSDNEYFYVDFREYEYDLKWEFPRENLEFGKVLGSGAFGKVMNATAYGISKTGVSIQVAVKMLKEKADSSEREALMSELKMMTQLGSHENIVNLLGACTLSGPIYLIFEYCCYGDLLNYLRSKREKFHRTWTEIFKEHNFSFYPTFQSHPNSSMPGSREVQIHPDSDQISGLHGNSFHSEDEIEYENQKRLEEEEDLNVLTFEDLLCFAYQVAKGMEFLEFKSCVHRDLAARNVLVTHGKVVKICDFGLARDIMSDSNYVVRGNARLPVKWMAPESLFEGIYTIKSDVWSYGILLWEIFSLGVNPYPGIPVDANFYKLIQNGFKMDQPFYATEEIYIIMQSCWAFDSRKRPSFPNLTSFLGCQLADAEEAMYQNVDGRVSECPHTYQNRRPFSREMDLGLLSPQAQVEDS
Description: Cell-Based FLT3 Receptor Elisa (Baf3 FLT3 cells). The note with it: uncertainty ±20%. As for the experimental part:
Cell-Based FLT3 Receptor Elisa
Specific cellular inhibition of FLT ligand-induced wild-type FLT3 phosphorylation was measured in the following manner: Baf3 FLT3 cells overexpressing the FLT3 receptor were obtained from Dr. Michael Heinrich (Oregon Health and Sciences University). The Baf3 FLT3 cell lines were created by stable transfection of parental Baf3 cells (a murine B cell lymphoma line dependent on the cytokine IL-3 for growth) with wild-type FLT3. Cells were selected for their ability to grow in the absence of IL-3 and in the presence of FLT3 ligand.
Baf3 cells were maintained in RPMI 1640 with 10% FBS, penn/strep and 10 ng/ml FLT ligand at 37° C., 5% CO2. To measure direct inhibition of the wild-type FLT3 receptor activity and phosphorylation a sandwich ELISA method was developed similar to those developed for other RTKs (3,4). 200 μL of Baf3FLT3 cells (1×10^6/mL) were plated in 96 well dishes in RPMI 1640 with 0.5% serum and 0.01 ng/mL IL-3 for 16 hours prior to 1 hour compound or DMSO vehicle incubation. Cells were treated with 100 ng/mL Flt ligand (R&D Systems Cat# 308-FK) for 10 min. at 37° C. Cells were pelleted, washed and lysed in 100 ul lysis buffer (50 mM Hepes, 150 mM NaCl, 10% Glycerol, 1% Triton-X-100, 10 mM NaF, 1 mM EDTA, 1.5 mM MgCl2, 10 mM NaPyrophosphate) supplemented with phosphatase (Sigma Cat# P2850) and protease inhibitors (Sigma Cat #P8340). […]

The target of test [2] is T3, isolated kinase domain of the human c-kit receptor (Homo sapiens, UniProt P10721).
T3 construct: isolated kinase domain of the human c-kit receptor; purchased ProQinase lot SP005
T3 sequence (P10721 589-937 limits assumed): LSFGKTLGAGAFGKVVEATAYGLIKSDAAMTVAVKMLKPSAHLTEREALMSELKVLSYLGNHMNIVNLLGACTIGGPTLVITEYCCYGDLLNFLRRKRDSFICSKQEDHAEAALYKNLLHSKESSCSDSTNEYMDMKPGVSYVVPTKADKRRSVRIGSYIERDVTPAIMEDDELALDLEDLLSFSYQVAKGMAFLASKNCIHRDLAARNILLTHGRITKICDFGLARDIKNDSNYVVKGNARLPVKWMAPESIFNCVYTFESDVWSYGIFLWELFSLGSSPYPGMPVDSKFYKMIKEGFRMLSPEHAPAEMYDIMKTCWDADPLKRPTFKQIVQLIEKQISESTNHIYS
Description: c-Kit Fluorescence Polarization Kinase Assay. In kind it is biochemical. The settings on record: uncertainty ±10%; read-out: ckit IC50. The method, then:
c-Kit Fluorescence Polarization Kinase Assay
The compounds of the present invention are also specific inhibitors of c-Kit. Selection of preferred compounds of Formula I for use as c-Kit inhibitors was performed in the following manner using an in vitro kinase assay to measure inhibition of the isolated kinase domain of the human c-kit receptor in a fluorescence polarization (FP) protocol. The c-kit assay utilized the fluorescein-labeled phosphopeptide and the anti-phosphotyrosine antibody included in the Panvera Phospho-Tyrosine Kinase Kit (Green) supplied by Invitrogen. When c-kit phosphorylated the poly Glu4Tyr, the fluorescein-labeled phosphopeptide was displaced from the anti-phosphotyrosine antibody by the phosphorylated poly Glu4Tyr, thus decreasing the FP value. The c-kit kinase reaction was incubated at room temperature for 45 minutes under the following conditions: 1 nM c-kit (ProQinase, lot SP005), 100 ug/mL poly Glu4Tyr, 50 uM ATP, 5 mM MgCl2, 1 mM DTT, 0.01% Tween-20, 1% DMSO or compound in […], pH 7.5. The kinase reaction was stopped with the addition of EDTA. The fluorescein-labeled phosphopeptide and the anti-phosphotyrosine antibody were added and incubated for 30 minutes at room temperature and fluorescence polarization was read. Data points were an average of triplicate samples. Inhibition and IC50 data analysis were done with GraphPad Prism using a non-linear regression fit with a multiparamater, sigmoidal dose-response (variable slope) equation.

For a further test, the system named is MV4-11 cells. Description: Inhibition of MV4-11 cell proliferation (CellTiterGlo). The note with it: Homo sapiens; 72 hours growth; uncertainty ±20%. In kind it is cell-based. As for the experimental part:
Inhibition of MV4-11 and Baf3 Cell Proliferation
To assess the cellular potency of the compounds of the present invention, FLT3 specific growth inhibition was measured in the leukemic cell line MV4-11 (ATCC Number: CRL-9591). MV4-11 cells are derived from a patient with childhood acute myelomonocytic leukemia with an 11q23 translocation resulting in a MLL gene rearrangement and containing an FLT3-ITD mutation (AML subtype M4)(1,2). MV4-11 cells cannot grow and survive without active FLT3ITD.
To measure proliferation inhibition by test compounds, the luciferase based CellTiterGlo reagent (Promega), which quantifies total cell number based on total cellular ATP concentration, was used. […]
Compound dilutions or 0.1% DMSO (vehicle control) are added to cells and the cells are allowed to grow for 72 hours at standard cell growth conditions (37° C., 5% CO2). […] To measure total cell growth an equal volume of CellTiterGlo reagent was added to each well, according to the manufacturer's instructions, and luminescence was quantified. Total cell growth was quantified as the difference in luminescent counts (relative light units, RLU) of cell number at Day 0 compared to total cell number at Day 3 (72 hours of growth and/or compound treatment). One hundred percent inhibition of growth is defined as an RLU equivalent to the Day 0 reading. […]

T1 sequence (Q16620 32-822): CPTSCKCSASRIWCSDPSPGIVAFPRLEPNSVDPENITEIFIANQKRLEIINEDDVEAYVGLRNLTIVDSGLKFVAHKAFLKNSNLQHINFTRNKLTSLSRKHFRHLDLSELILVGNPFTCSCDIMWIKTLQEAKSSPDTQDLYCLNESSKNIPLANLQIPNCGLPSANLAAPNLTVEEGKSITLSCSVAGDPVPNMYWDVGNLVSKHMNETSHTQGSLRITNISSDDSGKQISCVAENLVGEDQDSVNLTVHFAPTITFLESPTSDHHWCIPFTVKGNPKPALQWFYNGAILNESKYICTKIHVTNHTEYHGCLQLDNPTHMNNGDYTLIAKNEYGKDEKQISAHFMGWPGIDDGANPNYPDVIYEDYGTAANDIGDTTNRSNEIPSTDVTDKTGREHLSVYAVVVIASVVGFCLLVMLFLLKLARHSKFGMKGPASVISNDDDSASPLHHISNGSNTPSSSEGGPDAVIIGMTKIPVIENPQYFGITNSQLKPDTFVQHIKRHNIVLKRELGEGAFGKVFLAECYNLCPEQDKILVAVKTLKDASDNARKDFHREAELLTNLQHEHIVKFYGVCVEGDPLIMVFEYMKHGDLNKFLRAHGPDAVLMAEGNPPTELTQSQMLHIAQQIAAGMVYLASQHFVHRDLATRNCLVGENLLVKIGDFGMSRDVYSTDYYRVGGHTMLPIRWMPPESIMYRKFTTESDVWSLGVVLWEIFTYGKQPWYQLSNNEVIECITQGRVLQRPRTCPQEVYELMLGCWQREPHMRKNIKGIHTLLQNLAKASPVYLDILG

On to `COc1cc2ncnc(C3CCN(C(=O)Nc4ccc(N5CCN(C)CC5)cc4)CC3)c2cc1OC` [Compound 20, 4-(6,7-Dimethoxy-quinazolin-4-yl)-piperidine-1-carboxylic acid [4-(4-methyl-piperazin-1-yl-phenyl)]-amide], for which the concentration for half-maximal inhibition (IC50) against TrkB was 39900 nM; in test [1] it was above 3000 nM.

For `CC(C)Oc1ccc(NC(=O)N2CCC(c3ncnc4cc(OCCCN5CCN(C)CC5)ccc34)CC2)cc1` [Compound 39], the values for the IC50 (in test [2]; in the test on MV4-11 cells; at TrkB) were 14 nM, 14 nM and 600 nM, respectively.

As for `COc1cc2ncnc(C3CCN(C(=O)Nc4ccc(C(C)O)cc4)CC3)c2cc1OC` (stereo not shown) [Compound 55, 4-(6,7-Dimethoxy-quinazolin-4-yl)-piperidine-1-carboxylic acid [4-(1-hydroxy-ethyl)-phenyl]-amide], the half-inhibitory concentration (IC50) at TrkB amounted to 39100 nM; in test [1], 1000 nM.

The IC50 is the midpoint of a concentration-inhibition curve.
